pIC50: −log10 of the molar value. The source made the active and inactive calls.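 How the source made its calls: active means half-maximal concentration for changing protein binding to DNA, from the fitted dose curve, below 10 micromolar; inactive means the rest.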
Biological target: Nuclear receptor subfamily 1 group D member 1 (Homo sapiens) (UniProt P20393)
Assay: modulators of Rev-erb alpha DNA binding, dose response, biochemical, FITC-DNA, fluorescence polarization (AID 1259321)

Chain of Nuclear receptor subfamily 1 group D member 1 (Homo sapiens) (P20393 whole entry, looked up): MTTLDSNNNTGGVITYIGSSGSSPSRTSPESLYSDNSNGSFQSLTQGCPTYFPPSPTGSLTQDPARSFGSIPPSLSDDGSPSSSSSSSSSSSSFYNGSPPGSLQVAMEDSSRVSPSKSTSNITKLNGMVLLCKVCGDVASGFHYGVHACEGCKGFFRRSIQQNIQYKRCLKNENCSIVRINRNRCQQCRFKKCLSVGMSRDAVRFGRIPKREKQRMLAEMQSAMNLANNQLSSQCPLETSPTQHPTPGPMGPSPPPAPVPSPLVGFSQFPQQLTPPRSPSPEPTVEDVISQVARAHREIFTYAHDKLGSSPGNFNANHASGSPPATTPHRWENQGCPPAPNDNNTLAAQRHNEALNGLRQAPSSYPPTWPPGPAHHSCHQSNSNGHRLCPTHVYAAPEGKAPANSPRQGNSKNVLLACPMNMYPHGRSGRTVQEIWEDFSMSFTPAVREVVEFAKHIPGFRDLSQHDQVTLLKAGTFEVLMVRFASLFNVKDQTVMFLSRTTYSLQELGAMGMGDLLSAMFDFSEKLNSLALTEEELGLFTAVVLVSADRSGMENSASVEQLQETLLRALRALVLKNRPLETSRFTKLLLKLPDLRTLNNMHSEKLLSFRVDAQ

| Structure (SMILES) | pIC50 | IC50 |
| --- | --- | --- |
| O=C(O)CN1C(=O)/C(=C\c2cn(CC(=O)N3CCOCC3)c3ccccc23)SC1=S | 5.00 |  |
| COc1ccc(C(=O)Nc2ccccc2-c2nnn(CC(N)=O)n2)cc1 |  | inactive |
| CC(=O)c1cccc(NC(=O)c2cccc(NC(=O)c3ccco3)c2)c1 | 5.80 |  |
| COc1ccc(NC(=O)NNC(=O)c2cc3ccccc3cc2O)cc1 | 5.01 |  |
| O=[N+]([O-])c1cc(-c2cnc3ccccc3n2)ccc1Cl | 5.43 |  |
| O=c1ccc2c(-c3ccccc3)c3ccc(O)cc3oc-2c1 |  | inactive |
| CCn1cc(C2N3CC4(C)CN2CC(C)(C3)C4=O)c2ccccc21 (stereo unspecified) | 5.55 |  |
| CCCCCc1nc2c(c(=O)c3ccccc3n2C)c(=O)n1Cc1ccc(OC)cc1 | 5.53 |  |
| CCN1C(=O)/C(=C\N2CCN(c3cccc(Cl)c3)CC2)SC1=S | 5.05 |  |
| COc1ccc2nc(SC)c(C#N)cc2c1 |  | inactive |
| Cc1ccc(-n2nc3c(N4CCC(C(=O)NCCc5cccs5)CC4)nnc(C)c3c2C)cc1 | 5.16 |  |
| CCc1cc2c(C)ccc(C)c2nc1SCC(=O)Nc1c[nH]c(=O)[nH]c1=O |  | inactive |
| COc1ccc(/C=C2\SC(=S)N(CCCC(=O)NC3CCCC3)C2=O)cc1OC |  | > 40 µM (inactive) |
| CCN(CC)C(=O)CSC1=C(C#N)C(c2cccs2)C=C(C)N1 (stereo unspecified) |  | inactive |
| CCOc1ccc(NC(=O)CNC(=O)c2nn(-c3ccc(OC)c(OC)c3)c(=O)c3ccccc23)cc1 | 5.14 |  |
| CCN(CC)c1ccc2cc(C=O)c(=O)oc2c1 |  | > 40 µM (inactive) |
| CCSC1=N/C(=C\C=C2/Oc3ccccc3N2CC)C(=O)S1 | 5.03 |  |
| O=c1c2ccccc2ncn1-c1ccc(Cl)c(Cl)c1 |  | > 40 µM (inactive) |
| CCOc1ccc2nc(N=Nc3c(O)[nH]c(=S)[nH]c3=O)sc2c1 |  | > 40 µM (inactive) |
| Cc1ccc2[nH]c(C)c(/C=C/c3cc[n+](C)cc3)c2c1 | 5.07 |  |
| CC1(C)Cc2c(sc3c2c(N)nc(=S)n3Cc2ccccc2)CO1 |  | inactive |
| COCCn1c(=NC(=O)CCS(=O)(=O)c2ccccc2)sc2cc(C(=O)OC)ccc21 |  | > 40 µM (inactive) |
| CCC(C)(C)c1ccc(OCCCC[n+]2ccc(C)cc2)c(C(C)(C)CC)c1 |  | > 40 µM (inactive) |
| COc1ccc(CCn2c(O)c(C=Nc3ccc(F)cc3)c(=O)[nH]c2=O)cc1OC |  | inactive |
| COc1cccc(CNC(=O)C[C@H]2CC[C@H]3[C@@H](COc4ccc(NC(=O)c5cccs5)cc4C(=O)N3C)O2)c1 | 5.14 |  |
| O=c1sc(N2CCN(c3ccc(F)cc3)CC2)nc2ccsc12 |  | inactive |

| Structure (SMILES) | pIC50 | IC50 |
| --- | --- | --- |
| COc1ccc(-n2ncc3c(N4CCc5ccccc54)ncnc32)cc1 | 5.08 |  |
| COc1ccc(C(=O)Nc2scc(-c3ccc(Cl)cc3Cl)c2C(N)=O)cc1 |  | inactive |
| Cc1ccccc1CNc1ncnc2cc(Cl)ccc12 | 6.01 |  |
| O=C(CCCn1c(=S)[nH]c2cc3c(cc2c1=O)OCO3)NCc1cccc(Cl)c1 |  | > 40 µM (inactive) |
| COC(=O)Cn1c(=NC(=O)c2ccc(OC)c(OC)c2)sc2cc(OC)ccc21 |  | > 40 µM (inactive) |
| Cc1nonc1NC(=O)CSc1nc2c(C)cccc2cc1C#N |  | > 40 µM (inactive) |
| CN1/C(=C\C=C2/C(=O)Oc3ccccc3C2=O)C(C)(C)c2ccccc21 | 5.32 |  |
| Cc1cc(C(F)(F)F)c2c(N)c(C(=O)Nc3cc(C)on3)sc2n1 |  | inactive |
| CCOC(=O)c1nn(-c2ccc(F)cc2)c(=O)cc1OCC(=O)Nc1ccc(F)c(F)c1 |  | > 40 µM (inactive) |
| Cc1cc(Br)ccc1NC(=O)c1sc2ncn(CC(=O)N3CCN(c4ccccn4)CC3)c(=O)c2c1C | 5.27 |  |
| CC(C)(C)c1nc(SCC(=O)Nc2ccc3c(c2)OCCO3)c2ccccc2n1 | 6.06 |  |
| COc1ccc(NC(=O)c2sc3nc(N4CCCC4)c4c(c3c2N)CC(C)(C)OC4)c(OC)c1 |  | > 40 µM (inactive) |
| N#Cc1c(N)nc2c3c(sc(=N)c2c1N)NC(=O)CC3c1c(F)cccc1Cl (stereo unspecified) | 6.11 |  |
| C[n+]1ccc(/C=C/c2c[nH]c3ccccc23)cc1 |  | inactive |
| Cc1c(C(=O)Nc2ccncc2)sc2nc(-c3ccc(F)cc3)cn12 | 5.42 |  |
| CC(C)(C)c1ccc(C(=O)c2c[nH]c(C(=O)NCc3cccs3)c2)cc1 | 5.41 |  |
| COC(=O)c1ccc(Cn2ccc3ccc(-c4ccc5ccn(C(=O)c6cccc(OC)c6)c5c4)cc32)cc1 |  | inactive |
| Cc1cc(C)c2cc(C#N)c(SCC(=O)NCC3CCCO3)nc2c1 (stereo unspecified) | 5.40 |  |
| CCc1nnc(NS(=O)(=O)c2ccc(Nc3ccc([N+](=O)[O-])c4nonc34)cc2)s1 | 5.02 |  |
| COc1ccccc1-c1ccc2c(c1)C(C)(Cc1ccccc1C#N)C(=O)N2 (stereo unspecified) | 5.15 |  |
| Fc1cccc2sc(Nc3nc4c(F)cccc4s3)nc12 | 5.34 |  |
| Cc1cccc2cc(C#N)c(SCC#N)nc12 |  | > 40 µM (inactive) |
| CC(OC(=O)c1cc2c(ccc3ccccc32)oc1=O)c1nc2ccccc2s1 (stereo unspecified) |  | inactive |
| O=C(CCCn1c(=S)[nH]c2cc3c(cc2c1=O)OCO3)NCc1ccccc1Cl |  | inactive |
| c1ccc(N(c2ccccc2)c2nc(N3CCCC3)nc(-n3ccnc3)n2)cc1 | 5.94 |  |
